Measured values as given in ChEMBL document CHEMBL3045064, “3D-QSAR of amino-substituted pyrido[3,2B]pyrazinones as PDE-5 inhibitors” (Med Chem Res, 2012).

Each molecule was assayed against cGMP-specific 3',5'-cyclic phosphodiesterase (Homo sapiens, UniProt O76074) (assay: Inhibition of PDE5 (unknown origin)).

Structure (SMILES)	IC50
O=c1c(NCC2CCOCC2)nc2ccc(-c3cnc(O)nc3)nc2n1CC1CCCCC1	2.88 nM
COc1ccc(-c2ccc3nc(NCC(=O)N(C)C)c(=O)n(CC4CCCCC4)c3n2)cn1	14.5 nM
O=c1c(NCCN2CCOCC2)nc2ccc(-c3ccc(O)nc3)nc2n1CC1CCCCC1	537 nM
COc1ccc(-c2ccc3nc(NCC4CCOCC4)c(=O)n(CC4CCCCC4)c3n2)cn1	2.29 nM
Cc1noc(C)c1-c1ccc2nc(NCCN3CCOCC3)c(=O)n(CC3CCCCC3)c2n1	36.3 nM
COc1ccc(-c2ccc3nc(NCCN4CCOCC4)c(=O)n(CC4CCCCC4)c3n2)cn1	26.9 nM
O=c1c(NCC2CCOCC2)nc2ccc(-c3ccncc3)nc2n1CC1CCCCC1	33.9 nM
